Earlier results in patent US9827309B2, “Treating cancer with a combination of a PD-1 antagonist and dinaciclib” (Merck Sharp & Dohme Corp., priority 2013, dated 2017).

Settings: clinical trials; cited from earlier work

CCc1cnn2c(NCc3ccc[n+]([O-])c3)cc(N3CCCC[C@H]3CCO)nc12 [Dinaciclib, 1-[3-ethyl-7-[[(1-oxido-3-pyridinyl)methyl]amino]pyrazolo[1,5-a]pyrimidin-5-yl]-2(S)-piperidineethanol]
most common dose-limiting toxicity: neutropenia
